Experimental data reported in patent publication US5597803A, “Bradykinin peptides with modifications at the N terminus” (Hoechst Aktiengesellschaft, priority 1992, dated 1997).

How the values were obtained:
[1] = biological target: T1, isolated guinea pig pulmonary artery (Cavia porcellus, UniProt O70526); test: bradykinin-antagonistic action on the isolated guinea pig pulmonary artery (inhibition of bradykinin-induced contraction); format: cell-based; details: contraction by 2×10^-7 mol/l bradykinin; peptides 5×10^-8 -1×10^-5 mol/l for 10 minutes; calculated from dose-effect plots; unit inferred
T1 sequence (O70526 1-372): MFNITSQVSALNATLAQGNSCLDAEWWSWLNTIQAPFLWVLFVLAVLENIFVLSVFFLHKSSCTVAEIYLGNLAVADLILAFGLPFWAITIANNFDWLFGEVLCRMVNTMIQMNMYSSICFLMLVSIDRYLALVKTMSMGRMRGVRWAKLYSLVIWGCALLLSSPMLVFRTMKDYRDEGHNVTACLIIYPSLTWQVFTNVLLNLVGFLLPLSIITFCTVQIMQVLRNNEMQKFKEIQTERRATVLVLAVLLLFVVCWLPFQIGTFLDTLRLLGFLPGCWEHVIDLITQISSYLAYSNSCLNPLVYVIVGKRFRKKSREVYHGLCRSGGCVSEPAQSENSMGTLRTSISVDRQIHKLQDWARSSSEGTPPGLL
Excerpt: The peptides according to the invention have, singly or in combination, a bradykinin-antagonistic action which can be tested in various models (see Handbook of Exp. Pharmacol. Vol. 25, Springer Verlag, 1970, pages 53-55), for example on the isolated rat uterus, on the guinea pig ileum or on the isolated guinea pig pulmonary artery.
(§1) To test the peptides according to the invention on the isolated pulmonary artery, guinea pigs (Dunkin Hartley) weighing 400-450 g are sacrificed by a blow to the back of the neck. The thorax is opened and the pulmonary artery is carefully dissected out. The surrounding tissue is cautiously removed and the pulmonary artery is cut open in a spiral at an angle of 45°. The strip of vessel 2.5 cm long and 3-4 mm wide is fixed in an organ bath which has a capacity of 10 ml and is filled with Ringer solution.
(§2) 95% O2 and 5% CO2 is bubbled through the solution, which is heated to 37° C. The pH is 7.4 and the preload on the strip of vessel is 1.0 g.
(§3) The isometric contraction changes are detected using a lever attachment and an HF modem (position sensor) from Hugo Sachs and are recorded on a potentiometric recorder (BEC, Goerz Metrawatt SE 460).
The experiment is started after equilibration for 1 hour. After the strips of vessel have reached their maximum sensitivity to 2×10^-7 mol/1 bradykinin--bradykinin leads to contraction of the strips of vessel--the peptides are left to act in doses of 5×10^-8 -1×10^-5 mol/l for 10 minutes each and, after renewed addition of bradykinin, the decrease in the effect of bradykinin is compared with the control.

[2] = biological target: T1, isolated guinea pig pulmonary artery; test: duration of action (T50) on the isolated pulmonary artery after replacement of the peptide-containing buffer; format: cell-based; details: time until strips again reach maximum sensitivity to 2×10^-7 mol/l bradykinin after washout; measure of duration of action; found by calculation
Description: as §1, §2, §3
The experiment is started after equilibration for 1 hour. […]
For some selected compounds, the time until the strips of vessel have again reached their maximum sensitivity to 2×10^-7 mol/l bradykinin after replacement of the peptide-containing by a "simple" buffer was also determined in the experimental arrangement described above. […]

[3] = system: carrageenan-induced edema of the rat paw; test: carrageenan-induced edema of the rat paw, systemic administration; format: in vivo; details: 15 min before carrageenan, male Sprague-Dawley rats, mean and standard deviation
Description: Antiinflammatory effect after systemic administration: carrageenan-induced edema of the rat paw
The test chosen for the acute systemic antiinflammatory effect is the carrageenan-induced edema of the rat paw by the method described by Winter C. A. et al., Proc. Soc. Exp. Biol. (N.Y.), 111, 544 (1962). Male Sprague-Dawley rats weighing about 170 g in groups of 5 animals receive the substances to be tested subcutaneously dissolved in distilled water (1 ml/kg bodyweight). 15 min later, after measurement of the initial volume of the paw, 0.1 ml of 0.5% strength carrageenan solution is injected under ether anesthesia into the left rear paw. The increase in volume of the swelling is measured 3 and 6 h later, Controls receive only the vehicle. The paw volume is reported in ml (mean and standard deviation).

| Substance | IC50 [1] | T50 (pulmonary artery) [2] | Increase in paw volume after 3 h ([3]; 0.1 mg/kg subcutaneously) | Increase in paw volume after 6 h ([3]; 0.1 mg/kg subcutaneously) | Increase in paw volume after 3 h ([3]; 1.0 mg/kg subcutaneously) | Increase in paw volume after 6 h ([3]; 1.0 mg/kg subcutaneously) |
| --- | --- | --- | --- | --- | --- | --- |
| Fmoc-(4-aminocyclohexylcarbonyl)-D-Arg-Arg-Pro-Hyp-Gly-Thi-Ser-D-Tic-Oic-Arg-OH [Example 15] | 25 nM |  |  |  |  |  |
| Fmoc-Aoc-D-Arg-Arg-Pro-Hyp-Gly-Thia-Ser-D-Tic-Oic-Arg-OH [Example 2] | 8.5 nM | 253.3 min | 0.13 ± 0.04 mL | 0.29 ± 0.08 mL | 0.19 ± 0.06 mL | 0.27 ± 0.06 mL |
| Fmoc-D-Aoc-Arg -Arg-Pro-Hyp-Gly-Thi-Ser-D-Tic-Oic-Arg-OH [Example 7] | 22 nM |  |  |  |  |  |
